Measurements published in paper PMC10178848, “Modulating fast skeletal muscle contraction protects skeletal muscle in animal models of Duchenne muscular dystrophy” (The Journal of Clinical Investigation, 2023).

Tests used:
PIK3CA = molecular target: T1, PIK3CA (Homo sapiens, UniProt P42336); test: KINOMEscan scanEDGE; format: binding; conditions: 20 uM
T1 construct: purchased Eurofins DiscoverX (KINOMEscan; SAFETYscan E/IC50 ELECT)

[1] = system: Neonatal Rat (P1) myofibrils; test: Myofibril ATPase, neonatal rat; format: biochemical
Experimental: (§1) Myofibrils were prepared from various animals and tissues: rabbit psoas muscle and porcine cardiac muscle were purchased from Pel-Freez Biologicals. Human bicep and soleus muscle were purchased from BioIVT, and neonatal rat muscle was obtained in house. All myofibrils were prepared using published methods ([21]).
(§2) A lactate dehydrogenase/pyruvate kinase enzyme-coupled system ([62]) was used to monitor ATP hydrolysis rates in various muscle preparations. Rabbit psoas myofibrils were used for high-throughput screening at pCa 6.25 at 0.25 mg/mL. A multidrop cassette (Thermo Fisher Scientific) dispensed 10 μL of the coupled enzyme system, calcium, and myofibrils to 10 μL ATP, NADH and PEP to initiate the reaction prior to reading on a plate reader (Envision, Perkin Elmer) for 10 minutes per plate at room temperature. Hits were reconfirmed, and secondary assays were used to evaluate selectivity, including bovine cardiac myofibrils (pCa 5.86) and enzyme coupled hits with a hexokinase screen (Sigma-Aldrich).

ACVR1B = molecular target: T2, ACVR1B (Homo sapiens, UniProt P36896); test: KINOMEscan scanEDGE; format: binding; conditions: 20 uM
T2 construct: purchased Eurofins DiscoverX (KINOMEscan; SAFETYscan E/IC50 ELECT)

IKK-alpha = molecular target: T3, IKK-alpha (Homo sapiens, UniProt O15111); test: KINOMEscan scanEDGE; format: binding; conditions: 20 uM
T3 construct: purchased Eurofins DiscoverX (KINOMEscan; SAFETYscan E/IC50 ELECT)
T3 sequence (O15111 whole entry): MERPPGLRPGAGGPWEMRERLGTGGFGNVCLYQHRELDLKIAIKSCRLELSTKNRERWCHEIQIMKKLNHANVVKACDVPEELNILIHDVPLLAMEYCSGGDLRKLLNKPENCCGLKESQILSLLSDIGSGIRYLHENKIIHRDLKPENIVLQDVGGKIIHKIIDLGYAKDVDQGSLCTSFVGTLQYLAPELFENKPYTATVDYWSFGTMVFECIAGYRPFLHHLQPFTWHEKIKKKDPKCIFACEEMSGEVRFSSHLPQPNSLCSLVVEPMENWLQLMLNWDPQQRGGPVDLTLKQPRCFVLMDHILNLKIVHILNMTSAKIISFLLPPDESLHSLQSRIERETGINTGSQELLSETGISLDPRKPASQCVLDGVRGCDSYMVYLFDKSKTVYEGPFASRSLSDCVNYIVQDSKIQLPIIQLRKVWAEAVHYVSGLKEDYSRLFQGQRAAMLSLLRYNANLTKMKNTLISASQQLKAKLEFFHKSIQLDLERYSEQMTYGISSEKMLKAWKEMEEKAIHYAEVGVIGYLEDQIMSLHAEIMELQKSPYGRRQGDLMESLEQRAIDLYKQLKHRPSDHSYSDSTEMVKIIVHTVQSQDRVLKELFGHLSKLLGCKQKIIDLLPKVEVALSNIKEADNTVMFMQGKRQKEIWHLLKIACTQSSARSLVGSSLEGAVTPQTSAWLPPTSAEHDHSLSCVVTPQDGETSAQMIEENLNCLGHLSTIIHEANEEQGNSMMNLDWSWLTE

FAK = molecular target: T4, FAK (Homo sapiens, UniProt Q05397); test: KINOMEscan scanEDGE; format: binding; conditions: 20 uM
T4 construct: purchased Eurofins DiscoverX (KINOMEscan; SAFETYscan E/IC50 ELECT)
T4 sequence (Q05397 whole entry): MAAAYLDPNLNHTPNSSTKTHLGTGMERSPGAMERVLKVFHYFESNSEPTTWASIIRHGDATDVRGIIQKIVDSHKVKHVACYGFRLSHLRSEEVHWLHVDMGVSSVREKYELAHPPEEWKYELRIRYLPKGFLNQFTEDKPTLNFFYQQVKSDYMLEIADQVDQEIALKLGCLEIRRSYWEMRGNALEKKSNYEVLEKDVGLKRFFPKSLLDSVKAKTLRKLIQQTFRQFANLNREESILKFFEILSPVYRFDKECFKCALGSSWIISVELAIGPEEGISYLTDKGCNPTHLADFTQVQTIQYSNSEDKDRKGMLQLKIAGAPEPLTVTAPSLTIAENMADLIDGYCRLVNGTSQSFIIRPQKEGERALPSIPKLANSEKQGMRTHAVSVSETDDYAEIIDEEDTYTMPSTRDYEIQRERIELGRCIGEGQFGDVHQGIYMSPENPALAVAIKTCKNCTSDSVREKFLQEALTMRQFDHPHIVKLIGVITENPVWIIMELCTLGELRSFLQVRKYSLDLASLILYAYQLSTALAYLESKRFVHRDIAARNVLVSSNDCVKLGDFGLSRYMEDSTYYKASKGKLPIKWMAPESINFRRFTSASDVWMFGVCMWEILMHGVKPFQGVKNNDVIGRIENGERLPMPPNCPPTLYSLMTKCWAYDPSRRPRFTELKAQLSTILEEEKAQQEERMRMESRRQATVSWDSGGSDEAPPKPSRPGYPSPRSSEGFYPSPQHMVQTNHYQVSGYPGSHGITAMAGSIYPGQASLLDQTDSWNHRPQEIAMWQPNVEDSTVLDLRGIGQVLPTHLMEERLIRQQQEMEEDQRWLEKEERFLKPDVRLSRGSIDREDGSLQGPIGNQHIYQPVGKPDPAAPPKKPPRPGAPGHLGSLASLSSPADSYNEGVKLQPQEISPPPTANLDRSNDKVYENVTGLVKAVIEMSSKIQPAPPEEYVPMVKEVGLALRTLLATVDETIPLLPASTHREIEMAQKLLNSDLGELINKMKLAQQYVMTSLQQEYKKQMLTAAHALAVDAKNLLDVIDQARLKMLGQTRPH

INSR = molecular target: T5, INSR (Homo sapiens, UniProt P06213); test: KINOMEscan scanEDGE; format: binding; conditions: 20 uM
T5 construct: purchased Eurofins DiscoverX (KINOMEscan; SAFETYscan E/IC50 ELECT)

MARK3 = molecular target: T6, MARK3 (Homo sapiens, UniProt P27448); test: KINOMEscan scanEDGE; format: binding; conditions: 20 uM
T6 construct: purchased Eurofins DiscoverX (KINOMEscan; SAFETYscan E/IC50 ELECT)
T6 sequence (P27448 whole entry): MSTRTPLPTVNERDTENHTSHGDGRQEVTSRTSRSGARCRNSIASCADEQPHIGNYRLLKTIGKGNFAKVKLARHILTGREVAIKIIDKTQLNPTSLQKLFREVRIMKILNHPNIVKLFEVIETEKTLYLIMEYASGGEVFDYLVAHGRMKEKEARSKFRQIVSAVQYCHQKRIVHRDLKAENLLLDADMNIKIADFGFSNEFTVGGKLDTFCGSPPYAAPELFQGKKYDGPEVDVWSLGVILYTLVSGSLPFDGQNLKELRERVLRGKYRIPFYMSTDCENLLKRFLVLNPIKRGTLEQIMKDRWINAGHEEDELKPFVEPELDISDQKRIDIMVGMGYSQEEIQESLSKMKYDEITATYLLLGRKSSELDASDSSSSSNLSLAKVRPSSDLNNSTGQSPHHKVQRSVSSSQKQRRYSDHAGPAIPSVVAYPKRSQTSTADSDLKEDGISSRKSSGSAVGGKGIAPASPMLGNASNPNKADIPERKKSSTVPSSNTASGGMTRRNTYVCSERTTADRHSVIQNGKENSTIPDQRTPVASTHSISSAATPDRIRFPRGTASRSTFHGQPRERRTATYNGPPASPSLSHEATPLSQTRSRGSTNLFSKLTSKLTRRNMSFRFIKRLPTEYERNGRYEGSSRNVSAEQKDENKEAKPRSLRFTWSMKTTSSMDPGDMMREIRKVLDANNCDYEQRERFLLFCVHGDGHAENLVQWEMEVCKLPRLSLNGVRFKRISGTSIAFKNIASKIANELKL

PDGFRA = molecular target: T7, PDGFRA (Homo sapiens, UniProt P16234); test: KINOMEscan scanEDGE; format: binding; conditions: 20 uM
T7 construct: purchased Eurofins DiscoverX (KINOMEscan; SAFETYscan E/IC50 ELECT)
T7 sequence (P16234 24-1089): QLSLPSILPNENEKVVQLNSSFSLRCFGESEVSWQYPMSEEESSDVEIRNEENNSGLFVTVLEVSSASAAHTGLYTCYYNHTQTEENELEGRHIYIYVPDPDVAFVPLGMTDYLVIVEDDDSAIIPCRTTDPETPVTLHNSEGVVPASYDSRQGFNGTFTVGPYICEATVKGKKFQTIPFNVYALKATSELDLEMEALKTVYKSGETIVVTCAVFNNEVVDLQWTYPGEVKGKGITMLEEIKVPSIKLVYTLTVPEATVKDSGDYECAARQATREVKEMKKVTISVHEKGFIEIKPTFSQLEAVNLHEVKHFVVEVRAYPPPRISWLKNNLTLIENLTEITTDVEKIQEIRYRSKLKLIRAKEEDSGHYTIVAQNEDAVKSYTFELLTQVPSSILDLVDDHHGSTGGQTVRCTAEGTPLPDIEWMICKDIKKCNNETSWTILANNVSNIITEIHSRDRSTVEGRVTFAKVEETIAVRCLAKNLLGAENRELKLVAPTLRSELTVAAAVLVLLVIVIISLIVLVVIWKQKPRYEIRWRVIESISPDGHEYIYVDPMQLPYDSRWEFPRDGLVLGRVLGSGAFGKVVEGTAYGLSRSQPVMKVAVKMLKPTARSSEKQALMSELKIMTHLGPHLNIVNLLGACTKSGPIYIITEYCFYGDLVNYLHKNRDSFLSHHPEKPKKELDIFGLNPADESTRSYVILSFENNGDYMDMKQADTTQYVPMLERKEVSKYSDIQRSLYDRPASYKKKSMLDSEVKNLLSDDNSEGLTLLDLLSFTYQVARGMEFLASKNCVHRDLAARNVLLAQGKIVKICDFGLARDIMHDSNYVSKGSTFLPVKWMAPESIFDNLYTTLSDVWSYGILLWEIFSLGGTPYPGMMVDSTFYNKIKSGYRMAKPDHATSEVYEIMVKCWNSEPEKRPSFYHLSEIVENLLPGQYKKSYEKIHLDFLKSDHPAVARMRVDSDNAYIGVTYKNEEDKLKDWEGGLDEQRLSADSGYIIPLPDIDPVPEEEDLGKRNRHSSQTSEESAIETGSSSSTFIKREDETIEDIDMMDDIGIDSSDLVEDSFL

VEGFR2 = molecular target: T8, VEGFR2 (Homo sapiens, UniProt P35968); test: KINOMEscan scanEDGE; format: binding; conditions: 20 uM
T8 construct: purchased Eurofins DiscoverX (KINOMEscan; SAFETYscan E/IC50 ELECT)

WT or mdx mice = test: Forelimb grip strength; format: in vivo, mouse; conditions: single doses up to 10 mg/kg, 4 hours after oral administration
Experimental: Prior to in vivo assessments, mice were dosed PO after a 2-hour fast with 10 mL/Kg suspensions. Grip strength and rotarod assessments were performed masked, 4 hours after dosing using published protocols ([66], [67]). Grip strength was performed with a Columbus Instruments Rodent Force Meter. Forepaw strength represented the average of 5 trials with 30-second rest periods, normalized by BW. Rotarod endurance was performed with a Columbus Instruments RotaMax. Mice were placed on the device drum at 1 rpm, which accelerated 1 rpm every 3 seconds to 12 rpm and a maximal time of 500 seconds. This was repeated 3 times with a 3-minute rest and total time reported. Voluntary wheel running performance was assessed with a customized system. Timestamped RPMs were measured 24 hours per day by infrared sensors, and a custom software calculated distance. Whole-body EBD was visualized after intravenous administration ([35]). EBD in PBS at 10 mg/mL was sterile filtered, and 50 μL/10 g BW was injected via tail vein. After 24 hours, animals were sacrificed, skin was removed and fixed in 4% formalin for 24 hours, and photographed using a Leica/Lumix camera.

SRPK3 = molecular target: T9, SRPK3 (Homo sapiens, UniProt Q9UPE1); test: KINOMEscan scanEDGE; format: binding; conditions: 20 uM
T9 construct: purchased Eurofins DiscoverX (KINOMEscan; SAFETYscan E/IC50 ELECT)
T9 sequence (Q9UPE1 whole entry): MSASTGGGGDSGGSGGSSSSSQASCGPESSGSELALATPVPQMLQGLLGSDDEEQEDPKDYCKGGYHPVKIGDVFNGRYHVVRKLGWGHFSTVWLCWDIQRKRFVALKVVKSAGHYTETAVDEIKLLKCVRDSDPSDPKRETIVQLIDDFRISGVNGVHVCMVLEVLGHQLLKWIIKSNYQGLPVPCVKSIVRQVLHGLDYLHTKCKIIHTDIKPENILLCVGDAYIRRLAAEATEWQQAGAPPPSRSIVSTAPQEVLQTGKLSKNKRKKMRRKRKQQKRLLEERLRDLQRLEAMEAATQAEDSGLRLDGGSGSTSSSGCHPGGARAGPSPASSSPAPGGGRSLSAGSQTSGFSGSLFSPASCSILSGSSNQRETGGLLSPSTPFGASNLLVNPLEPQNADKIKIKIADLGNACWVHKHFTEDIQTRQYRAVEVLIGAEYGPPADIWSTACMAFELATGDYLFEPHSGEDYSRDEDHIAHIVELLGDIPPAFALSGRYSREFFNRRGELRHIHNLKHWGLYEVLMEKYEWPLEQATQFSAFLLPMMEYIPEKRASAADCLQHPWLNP

EGFR(L858R) = molecular target: T10, EGFR(L858R) (Homo sapiens, UniProt P00533, L858R); test: KINOMEscan scanEDGE; format: binding; conditions: 20 uM
T10 construct: purchased Eurofins DiscoverX (KINOMEscan; SAFETYscan E/IC50 ELECT)

CSNK1D = molecular target: T11, CSNK1D (Homo sapiens, UniProt P48730); test: KINOMEscan scanEDGE; format: binding; conditions: 20 uM
T11 construct: purchased Eurofins DiscoverX (KINOMEscan; SAFETYscan E/IC50 ELECT)

[2] = molecular target: T12, bovine cardiac myofibrils (Bos taurus, UniProt Q9BE39); test: Myofibril ATPase, bovine cardiac; format: biochemical; conditions: bovine cardiac ventricle; at pCa50
T12 construct: from tissue; host or cells: bovine cardiac ventricle
Experimental: as §1, §2

Human Bicep myofibrils = test: Myofibril ATPase, human bicep; format: biochemical
Experimental: as §1, §2

[3] = system: EDL muscles from mdx mice; test: Ex vivo eccentric (lengthening) contraction injury, mdx EDL; parameters: species or system mouse
Experimental: Isometric force was measured ex vivo in mouse EDL and soleus muscle. EDL muscle eccentric injury was based on published protocols ([30]), with degree of lengthening and stimulation modified to yield a uniform drop in mdx isometric and peak force over 10 contractions. After isolation, muscle was mounted via 5-0 suture to a combination servomotor/force transducer (300C-LR, Aurora) between 2 electrodes connected to a stimulator (701C, Aurora) in Ringers solution at 27°C with continuously infused CO2/O2 gas mixture. Experiments were recorded with custom MATLAB software via a National Instruments PCIe-6321 board and 2090A BNC connector. Muscles were preincubated for 60 minutes with DMSO (final 0.1%)/compound before 10 eccentric contractions, 1 minute apart, with 100 milliseconds of isometric stimulation at 100 Hz and active lengthening of 0.1 L0 at a rate of 2 L0/s. After lengthening, muscles were held at 1.1 L0 with stimulation for 100 milliseconds (Supplemental Figure 2A).

ERK1 = molecular target: T13, ERK1 (Homo sapiens, UniProt P27361); test: KINOMEscan scanEDGE; format: binding; conditions: 20 uM
T13 construct: purchased Eurofins DiscoverX (KINOMEscan; SAFETYscan E/IC50 ELECT)
T13 sequence (P27361 whole entry): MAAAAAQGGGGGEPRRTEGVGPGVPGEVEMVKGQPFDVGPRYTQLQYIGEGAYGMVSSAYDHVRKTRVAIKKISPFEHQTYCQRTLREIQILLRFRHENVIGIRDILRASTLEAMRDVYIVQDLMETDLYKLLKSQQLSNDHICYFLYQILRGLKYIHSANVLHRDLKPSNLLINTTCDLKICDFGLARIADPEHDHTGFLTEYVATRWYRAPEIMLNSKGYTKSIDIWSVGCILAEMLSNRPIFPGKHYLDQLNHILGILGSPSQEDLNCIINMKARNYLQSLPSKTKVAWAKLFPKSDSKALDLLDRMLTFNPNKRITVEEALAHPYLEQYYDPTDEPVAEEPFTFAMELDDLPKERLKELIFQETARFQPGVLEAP

[4] = system: slow skeletal rat soleus fibers; test: Skinned fiber force, rat soleus; conditions: 100% type I, EDG-5506
Experimental: Measurement of isometric force in skinned fibers from rabbit psoas, rat soleus, and rat cardiac trabeculae were performed as described previously ([65]) with an 802D fiber system (Aurora Scientific). Muscle bundles were thawed from –80°C and placed in relaxing solution. Single fibers were transferred to the testing apparatus with steel pins connected to a force transducer and motor (model 403A and 322C, Aurora Scientific), and collodion glue was applied. Temperature was set to 15°C for skeletal fibers and 30°C for rat cardiac trabeculae. The wells of the 802D were filled with different ratios of relaxing and activating pCa solutions as detailed previously ([65]). All control solutions contained 1% final DMSO. Traces were compared between control and compound runs to evaluate isometric force and calcium sensitivity.

PLK4 = molecular target: T14, PLK4 (Homo sapiens, UniProt O00444); test: KINOMEscan scanEDGE; format: binding; conditions: 20 uM
T14 construct: purchased Eurofins DiscoverX (KINOMEscan; SAFETYscan E/IC50 ELECT)

[5] = molecular target: T15, JAK2(JH1domain-catalytic) (Homo sapiens, UniProt O60674); test: KINOMEscan scanEDGE; format: binding; conditions: 20 uM
T15 construct: JAK2(JH1domain-catalytic); purchased Eurofins DiscoverX (KINOMEscan; SAFETYscan E/IC50 ELECT)
T15 sequence (O60674 840-1132 limits assumed): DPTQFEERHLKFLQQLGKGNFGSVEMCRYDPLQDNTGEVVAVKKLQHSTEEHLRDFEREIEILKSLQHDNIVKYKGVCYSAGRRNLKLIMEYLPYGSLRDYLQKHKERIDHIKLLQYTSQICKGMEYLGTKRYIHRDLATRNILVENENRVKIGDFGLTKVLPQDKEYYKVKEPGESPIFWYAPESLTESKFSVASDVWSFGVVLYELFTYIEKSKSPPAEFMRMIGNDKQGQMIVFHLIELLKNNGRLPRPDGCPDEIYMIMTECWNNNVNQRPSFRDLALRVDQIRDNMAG

## O=c1ccc(-c2cnc(OCC(F)(F)F)nc2)nn1Cc1cncc(F)c1 [EDG-5506]
PIK3CA
  binding, % of control: 100 % of control
[1]; neonatal rat (P1) myofibrils
  Maximum Inhibition (%): 96%
[1]; neonatal rat (P1), 100% neonatal/embryonic MHC
  IC50: 200 nM
ACVR1B
  binding, % of control: 91 % of control
IKK-alpha
  binding, % of control: 93 % of control
FAK
  binding, % of control: 100 % of control
INSR
  binding, % of control: 96 % of control
MARK3
  binding, % of control: 85 % of control
PDGFRA
  binding, % of control: 100 % of control
VEGFR2
  binding, % of control: 77 % of control
WT or mdx mice
  grip strength: no effect
SRPK3
  binding, % of control: 95 % of control
EGFR(L858R)
  binding, % of control: 95 % of control
CSNK1D
  binding, % of control: 94 % of control
[2]
  IC50: > 100000 nM
Human Bicep myofibrils; human bicep myofibrils
  Maximum Inhibition (%): 89%
Human Bicep myofibrils; human bicep, 50% Type I, 50% IIa, IIx
  IC50: 1200 nM
[3]; Mus musculus, at ≤1 μM (near maximal protection), read-out: inhibition of isometric force
  inhibition at 1 µM: ~15%
[3]; mdx EDL ex vivo
  strength drop with repeated lengthening contractions: dramatically lowered
[3]; mdx EDL, 10 lengthening contractions, 1-hour preincubation
  concentration giving near maximal protection from strength drop: ≤ 1 µM
ERK1
  binding, % of control: 100 % of control
[4]
  effect on force, slow skeletal fibers: no effect
PLK4
  binding, % of control: 90 % of control
[5]
  binding, % of control: 83 % of control
